One assay relates to prostate cancer. Description: Treatment of patients with prostate cancer (Working Examples). Format: in vivo, human.
The test system of assay [1] is PSA protein expression in LNCaP cells. The assay is described as follows: PSA protein expression in LNCaP cells (immunoblot). Format: cell-based. The following applies: nitric oxide synthesis inhibited; DHT 10 nmol/L 24 hours. Here is the method:
The experiments of Background Example 4 were repeated but instead of determining androgen receptor activation, PSA level was measured by PSA protein expression in LNCaP cells. LNCaP cells were incubated in phenol red-free RPMI cell culture medium containing 5% charcoal-stripped fetal bovine serum (CSS) for 48 hours and then treated with dihydrotestosterone (DHT) (10 nmol/L) or vehicle control (ethanol) for 24 hours. Immunoblots were conducted using anti-PSA antibodies to measure PSA protein expression. Same filters were immunoblotted using anti-actin antibodies as control to establish equal loading of proteins.
Background: Immunoblotting shows a protein as a band on a membrane.

Assay [2] deals with e-NOS overexpressing prostate cancer cells. As to conditions: 5-10 nmol/L. The procedure: (§1) Cell proliferation was determined in cellular assays carried out as follows:
(§2) LNCaP cells (obtained from ATCC) and seeded at 2.5×10^4/well were incubated in charcoal-stripped serum for 24-48 hours prior to stimulation with DHT (5-10 nmole/L) for an additional 48 hours. The number of viable cells (that exclude trypan blue) was counted using a light microscope and a hemocytometer.

For a further assay, the system named is LNCaP cells. As to conditions: 5-10 nmol/L, 48 hours, wild type cells. The procedure:
as §1, §2

The next assay relates to androgen receptor. The following applies: stimulated 24 hours.
Another assay concerns breast cancer. The assay is described as follows: Treatment of patient with breast cancer (Working Example X). Format: in vivo, human. As to conditions: person, 40 mg PO BID, over 6 months.
Assay [3] deals with T1, androgen receptor protein (Homo sapiens, UniProt P10275).
T1 construct: purchased Cambridge Bioscience, England
T1 sequence (P10275 1-920): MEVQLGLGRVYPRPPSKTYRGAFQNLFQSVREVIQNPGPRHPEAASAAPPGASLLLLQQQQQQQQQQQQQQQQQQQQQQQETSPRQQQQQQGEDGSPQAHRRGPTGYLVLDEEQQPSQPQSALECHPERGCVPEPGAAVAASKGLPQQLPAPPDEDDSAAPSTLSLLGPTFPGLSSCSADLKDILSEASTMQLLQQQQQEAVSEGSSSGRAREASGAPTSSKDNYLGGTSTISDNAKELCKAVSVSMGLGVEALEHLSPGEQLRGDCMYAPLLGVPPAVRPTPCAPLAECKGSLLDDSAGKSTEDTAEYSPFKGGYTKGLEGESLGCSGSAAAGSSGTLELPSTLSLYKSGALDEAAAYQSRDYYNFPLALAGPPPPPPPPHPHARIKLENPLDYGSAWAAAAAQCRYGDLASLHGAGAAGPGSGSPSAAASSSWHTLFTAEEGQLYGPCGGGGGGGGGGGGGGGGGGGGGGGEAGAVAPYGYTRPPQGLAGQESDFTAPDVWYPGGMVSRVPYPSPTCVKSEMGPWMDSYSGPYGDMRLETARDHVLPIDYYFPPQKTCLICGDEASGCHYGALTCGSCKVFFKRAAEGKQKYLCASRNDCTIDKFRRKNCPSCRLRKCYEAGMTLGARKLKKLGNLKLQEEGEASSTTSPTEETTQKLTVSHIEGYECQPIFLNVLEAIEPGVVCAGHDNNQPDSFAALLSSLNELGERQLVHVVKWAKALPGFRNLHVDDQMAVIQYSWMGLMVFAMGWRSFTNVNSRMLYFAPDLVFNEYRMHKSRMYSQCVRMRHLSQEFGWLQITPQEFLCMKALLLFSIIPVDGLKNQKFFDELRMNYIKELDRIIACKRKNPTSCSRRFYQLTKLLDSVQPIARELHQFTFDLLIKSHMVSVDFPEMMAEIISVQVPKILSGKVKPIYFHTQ
The assay is described as follows: S-nitrosylation of purified androgen receptor, biotin switch assay. Format: biochemical. As to conditions: anaerobic conditions; GSH as control. An excerpt: Purified androgen receptor protein (obtained from Cambridge Bioscience, England) was exposed to nitric oxide by means of contact with nitrosoglutathione (GSNO) under anaerobic conditions. Glutathione (GSH) was used as a control. […] Cell Biol 3, 193-197 (2001).

`N[C@H](CCC(=O)N[C@H](CS)C(=O)NCC(=O)O)C(=O)O` [D-glutathione] displayed a PSA level drop in the assay with prostate cancer (person, 150 mg orally 4 times/day, over 4 months) of 50%.

Take `COC(=O)[C@@H](N)CCCNC(=N)N[N+](=O)[O-]` [L-NAME]: in assay [1], the PSA expression entry is recorded as “more PSA was expressed”. Regarding `C[C@]12CCC(=O)C[C@@H]1CC[C@@H]1[C@@H]2CC[C@]2(C)[C@@H](O)CC[C@@H]12` [androgen, dihydrotestosterone], the results for the cell growth result (in assay [2]; with LNCaP cells) were “no effect on cell growth” and “increased cell growth”, respectively. For the same compound, the “androgen receptor activation by androgen (control case)” value in the assay with androgen receptor is “activated androgen receptor”. With `CCNC(=O)[C@@H]1CCCN1C(=O)[C@H](CCCNC(=N)N)NC(=O)[C@H](CC(C)C)NC(=O)[C@@H](COC(C)(C)C)NC(=O)[C@H](Cc1ccc(O)cc1)NC(=O)[C@H](CO)NC(=O)[C@H](Cc1c[nH]c2ccccc12)NC(=O)[C@H](Cc1cnc[nH]1)NC(=O)[C@@H]1CCC(=O)N1` [busaralin], the disease course result in the assay with prostate cancer (person with body metastases, busaralin treatment) was “the disease progresses”. As for `O=[N+]([O-])O[C@H]1CO[C@H]2[C@@H]1OC[C@H]2O[N+](=O)[O-]` [isosorbide dinitrate], the PSA level result in the assay on prostate cancer (person, 20 mg PO BID, over 3 months) is recorded as “stabilizes”.

Consider `O=[N+]([O-])O[C@@H]1CO[C@H]2[C@@H]1OC[C@@H]2O` [isosorbide mononitrate], for which the PSA level decline with prostate cancer (person, 40 mg PO BID, 3 months) is 50%. Further, the lung metastases entry in the assay with breast cancer is on record as “regress”. For `O=[N+]([O-])OCC(CO[N+](=O)[O-])O[N+](=O)[O-]` [nitroglycerin], in the assay with prostate cancer (topical 0.8 mg/hour, after progression on busaralin), the “progression of the disease measured by PSA and bony metastases” value was “slows”. `N[C@@H](CCC(=O)N[C@@H](CSN=O)C(=O)NCC(=O)O)C(=O)O` [nitrosoglutathione]: in the assay on prostate cancer (human, in vivo, po), the PSA level decrease is listed as 50%. In addition, the “S-nitrosylation of androgen receptor” value in assay [3] is listed as “S-Nitrosylation of androgen receptor was detected”.

These data come from patent US20080025972A1, “Treating sex steriod responsive disorders” (priority 2006, published 2008).
